Experimental data as given in the supplement of paper PMC10307832.

Tests used:
Test in all cases: relative viability (nuclei count vs DMSO), 5 days (fraction); higher = more cells survive
GW-2580 + Navitoclax = compound: COC1=CC=C(C=C1)COC2=C(C=C(C=C2)CC3=CN=C(N=C3N)N)OC [GW-2580] + CC1(C)CCC(c2ccc(Cl)cc2)=C(CN2CCN(c3ccc(C(=O)NS(=O)(=O)c4ccc(N[C@H](CCN5CCOCC5)CSc5ccccc5)c(S(=O)(=O)C(F)(F)F)c4)cc3)CC2)C1 [Navitoclax] (partner 0.5 µM)
How it was run: (§1)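 Relative viability is defined as nuclei in treated wells over nuclei in vehicle wells. Duplicate plates were run and medians reported. Lung cancer cell lines in 1536-well plates were dosed by pin tool one day after seeding, with one drug or with a fixed anchor-drug dose plus five library-drug doses (not always all listed) in √10 steps, and nuclei were counted after 5 days.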

Fedratinib + Foretinib = compound: Cc1cnc(Nc2ccc(OCCN3CCCC3)cc2)nc1Nc1cccc(S(=O)(=O)NC(C)(C)C)c1 [Fedratinib] + COc1cc2c(Oc3ccc(NC(=O)C4(C(=O)Nc5ccc(F)cc5)CC4)cc3F)ccnc2cc1OCCCN1CCOCC1 [Foretinib] (partner 0.25 µM)
How it was run: as §1

GW-2580 + AZD7762 = compound: COC1=CC=C(C=C1)COC2=C(C=C(C=C2)CC3=CN=C(N=C3N)N)OC [GW-2580] + NC(=O)Nc1cc(-c2cccc(F)c2)sc1C(=O)N[C@H]1CCCNC1 [AZD7762] (partner 0.2 µM)
How it was run: as §1

GW-2580 + OSI-027 = compound: COC1=CC=C(C=C1)COC2=C(C=C(C=C2)CC3=CN=C(N=C3N)N)OC [GW-2580] + COc1cccc2cc(-c3nc([C@H]4CC[C@H](C(=O)O)CC4)n4ncnc(N)c34)[nH]c12 [OSI-027] (partner 0.5 µM)
How it was run: as §1

Cell Line | relative viability (GW-2580 + Navitoclax; first compound 0.08 µM) | relative viability (GW-2580 + Navitoclax; first compound 0.8 µM) | relative viability (GW-2580 + Navitoclax; first compound 2.53 µM) | relative viability (GW-2580 + Navitoclax; first compound 8 µM) | relative viability (Fedratinib + Foretinib; first compound 0.1 µM) | relative viability (Fedratinib + Foretinib; first compound 0.3162 µM) | relative viability (Fedratinib + Foretinib; first compound 1 µM) | relative viability (GW-2580 + AZD7762; first compound 0.08 µM) | relative viability (GW-2580 + AZD7762; first compound 0.8 µM) | relative viability (GW-2580 + AZD7762; first compound 2.53 µM) | relative viability (GW-2580 + AZD7762; first compound 8 µM) | relative viability (GW-2580 + OSI-027; first compound 0.08 µM) | relative viability (GW-2580 + OSI-027; first compound 0.8 µM) | relative viability (GW-2580 + OSI-027; first compound 2.53 µM) | relative viability (GW-2580 + OSI-027; first compound 8 µM)
NCI-H2347 | 0.899 | 0.777 | 0.708 | 0.804 | 0.869 | 0.853 | 0.829 | 0.852 | 0.855 | 0.636 | 0.776 | 0.341 | 0.364 | 0.371 | 0.433
NCI-H2009 | 1.25 | 1.22 | 1.15 | 1.02 | 1.12 | 1.23 | 1.1 |  |  |  |  | 0.665 | 0.707 | 0.619 | 0.633
HCC-15 | 0.751 | 0.79 | 0.656 | 0.712 | 1.02 | 1.01 | 0.86 | 1.02 | 1.44 | 1.21 | 1.39 | 0.743 | 0.787 | 0.596 | 0.656
HCC-44 | 1.09 | 1.03 | 0.97 | 0.897 |  |  |  | 0.994 | 1 | 1.03 | 0.999 | 0.51 | 0.523 | 0.5 | 0.524
COR-L23 | 1.32 | 1.17 | 1.14 | 1.11 | 0.912 | 0.838 | 0.921 |  |  |  |  | 1.01 | 0.994 | 0.655 | 0.753
HCC-78 | 0.879 | 1.07 | 0.631 | 0.801 | 0.504 | 0.548 | 0.509 | 0.637 | 0.663 | 0.564 | 0.589 | 0.362 | 0.434 | 0.337 | 0.337
NCI-H1299 | 1.09 | 1.06 | 1.06 | 0.97 | 1.06 | 1.09 | 1.07 |  |  |  |  |  |  |  | 
NCI-H727 | 0.454 | 0.538 | 0.402 | 0.384 | 0.835 | 0.808 | 0.779 | 0.461 | 0.732 | 0.576 | 0.432 | 0.595 | 0.761 | 0.629 | 0.575
NCI-H2087 | 0.956 | 1.16 | 0.886 | 0.88 | 0.65 | 1.01 | 1.01 | 1.33 | 1.4 | 1.12 | 0.937 | 0.681 | 0.675 | 0.564 | 0.588
BEN | 0.0663 | 0.486 | 0.0634 | 0.0526 | 0.685 | 0.683 | 0.472 | 0.642 | 0.809 | 0.599 | 0.751 | 0.281 | 0.273 | 0.267 | 0.31
LCLC-103H |  |  |  |  | 0.644 | 0.797 | 0.608 | 0.884 | 0.838 | 0.648 | 0.716 | 0.482 | 0.434 | 0.482 | 0.458
EKVX | 0.977 | 1.03 | 0.732 | 0.925 | 0.791 | 0.687 | 0.828 | 0.7 | 0.777 | 0.644 | 0.804 | 0.692 | 0.755 | 0.73 | 0.67
LXF-289 | 1.02 | 0.963 | 0.948 | 0.821 | 0.963 | 0.958 | 0.981 | 1.17 | 1.2 | 1.07 | 1.06 | 0.999 | 0.859 | 0.857 | 0.731
ABC-1 |  |  |  |  | 1.03 | 1.22 | 0.96 | 0.836 | 0.941 | 0.717 | 0.829 | 0.471 | 0.533 | 0.502 | 0.53
NCI-H650 |  |  |  |  | 0.943 | 1.01 | 1.01 | 0.884 | 1.28 | 0.869 | 0.982 | 0.55 | 0.585 | 0.465 | 0.518
NCI-H1650 | 1.31 | 1.26 | 1.1 | 1.13 |  | 1.1 | 0.885 |  |  |  |  | 0.738 | 0.747 | 0.624 | 0.464
COR-L 105 | 0.813 | 0.814 | 0.72 | 0.751 | 0.866 | 1.03 | 0.676 |  |  |  |  | 0.662 | 0.807 | 0.713 | 0.676
NCI-H2228 | 1.01 | 0.84 | 0.869 | 0.723 | 0.847 | 0.825 | 0.743 |  |  |  |  | 0.569 | 0.6 | 0.639 | 0.545
SW 900 |  |  |  |  | 0.868 | 1.05 | 0.804 | 0.68 | 0.616 | 0.574 | 0.557 | 0.69 | 0.693 | 0.569 | 0.75
NCI-H661 |  |  |  |  | 0.959 | 1.1 | 1 |  |  |  |  | 0.739 | 0.754 | 0.644 | 0.543
NCI-H1563 |  |  |  |  | 0.894 | 0.927 | 0.874 |  |  |  |  | 0.827 | 0.803 | 0.737 | 0.707
A549 | 1.38 | 1.25 | 1.12 | 0.918 | 0.896 | 0.938 | 0.892 |  |  |  |  |  |  |  | 
NCI-H2342 |  |  |  |  | 1.05 | 1.07 | 0.989 | 0.585 | 0.481 | 0.497 | 0.444 | 0.574 | 0.671 | 0.519 | 0.62
NCI-H1623 |  |  |  |  | 0.839 | 0.876 | 0.817 |  |  |  |  | 0.4 | 0.475 | 0.393 | 0.428
NCI-H522 |  |  |  |  |  |  |  | 0.903 | 0.806 | 0.873 | 0.872 | 0.688 | 0.618 | 0.845 | 0.723
IA-LM | 0.895 | 0.88 | 0.723 | 0.782 | 1.15 | 1.23 | 1.12 |  |  |  |  |  |  |  | 
NCI-H358 |  |  |  |  | 0.482 | 0.63 | 0.541 | 0.588 | 0.604 | 0.516 | 0.363 | 0.944 | 0.817 | 0.667 | 0.742
EBC-1 | 0.418 | 0.37 | 0.369 | 0.37 | 0.112 | 0.103 | 0.1 |  |  |  |  |  |  |  | 
